Consider 17 compounds from paper PMC8003278, “Structure-Based Virtual Screening and De Novo Design of PIM1 Inhibitors with Anticancer Activity from Natural Products” (Pharmaceuticals, 2021).

One test deals with T1, PIM1 kinase (Homo sapiens, UniProt P11309).
T1 construct: purchased Reaction Biology Corp. (Malvern, PA, USA), contract assay service
Briefly: radiometric ([γ-33P]-ATP) kinase assay, PIM1 enzyme inhibition (Reaction Biology Corp.). Format: biochemical. From the text: Among a total of 42,613 natural products in the chemical database, 31,874 molecules that satisfied the physicochemical property criteria for a potential drug candidate were screened through docking simulations in the ATP-binding site of PIM1 kinase, as illustrated in Figure 1. Using the modified binding free energy function involving an accurate molecular dehydration term, 100 top-scoring compounds were selected as the virtual hits, all of which were commercially available from a compound vendor (InterBioScreen Ltd., https://www.ibscreen.com, accessed on 15 October 2019). All these putative inhibitors were tested for the presence of the inhibitory activity against PIM1 kinase with in vitro radiometric ([γ-^33P]-ATP) kinase assays (Reaction Biology Corp., Malvern, PA, USA).
The inhibitory activities of all compounds with respect to PIM1 were measured by Reaction Biology Corp. (Malvern, PA, USA) using radiometric kinase assays ([γ-^33P]-ATP). Briefly, the enzymatic reaction mixtures contained an artificial substrate peptide, poly-Glu-Tyr (4:1), in freshly prepared base reaction buffer (20 mM hydroxyethyl piperazine ethane sulfonic acid (HEPES) of pH 7.5, 10 mM MgCl2, 1 mM ethylene glycol tetraacetic acid (EGTA), 0.02% Brij-35, 0.02 mg/mL bovine serum albumin (BSA), 0.1 mM Na3VO4, 2 mM dithiothreitol (DTT), and 1% DMSO). PIM1 kinase was delivered into the substrate solution and gently mixed. Each inhibitor in 100% DMSO in a serial dilution was then delivered to the reaction mixture using the acoustic dispensing system (Echo550; nanoliter range). To initiate the enzymatic reaction, ^33P-ATP with a specific activity of 10 μCi/μL was added into the reaction mixture, which was further incubated for 2 h at room temperature. Radioactivity was then monitored by the filter-binding method after the reactions were spotted onto P81 ion exchange paper, and the filters were washed extensively in 0.75% phosphoric acid. Kinase activity data were expressed as the percent remaining kinase activity in test samples compared to vehicle (dimethyl sulfoxide) reactions. IC50 values and curve fits were calculated with Prism Software (GraphPad Software) at 10 different concentrations in duplicate.

In test [1] the test system is T47D human breast cancer cell lines. Briefly: MTT cell proliferation inhibition assay in T47D cells. Format: cell-based. The note with it: antiproliferative activity in T47D cell lines, mean ± standard deviation of the two experiments. On the procedure: To assess the anticancer activities of these new PIM1 inhibitors, we carried out cell-based assays for 5, 8, 14, 15, and 16 using T47D human cancer cell lines, which represented breast cancer caused by PIM1 [48]. The natural product wortmannin served as a positive control in this cellular study. Cell viabilities were measured at varying inhibitor concentrations with a 3-(4,5-dimethylthiazol-2-yl)-2,5-diphenyltetrazolium bromide (MTT) assay. […]. However, it should be noted that the inhibitory activities of 14–16 decrease from the nanomolar level in enzyme inhibition assays (Table 2) to the micromolar level in cell proliferation assays. The poor cell permeability can be invoked to explain the reduced biochemical potency in cell-based assays. In order for the new PIM1 inhibitors to become a good lead compound for the development of anticancer medicines, improving cellular permeability using further structural modifications is required.
The T47D human breast cancer cell lines were purchased from Korean Cell Line Bank (KCLB, Seoul, Korea). T47D cells were then cultured in Roswell Park Memorial Institute 1640 (RPMI-1640) medium with 10% fetal bovine serum (FBS) and 1% penicillin/streptomycin, and maintained at 37 °C in a CO2 incubator with a controlled humidified atmosphere comprising 95% air and 5% CO2. All the cell culture reagents were purchased from Thermo Fisher Scientific.
Cell viability was measured with 3-(4,5-dimethylthiazol-2-yl)-2,5-diphenyltetrazolium bromide (MTT) assay using the natural product wortmannin as a positive control. At first, T47D cells were plated at a density of 3–5 × 10^3 cells/well in 96-well plates for 24 h and then treated with either DMSO as a control or with varying concentrations of the PIM1 inhibitors (5, 8, 14, 15, and 16). The final concentration of DMSO in the medium was <0.1% (v/v). After the incubation of cells for 48 h, 20 μL of MTT solution (5 mg/mL) was added to each well for 4 h at 37 °C. The formazan crystals formed during the mixing were dissolved in DMSO (100 μL/well) by shaking for 5 min. Duplicate wells were used for each analysis although triplicate measurements would be more reliable. After 72 h, the absorbance of each solution was measured with a microplate reader at 540 nm to calculate the antiproliferative activity of the PIM1 inhibitors. Finally, the IC50 values were measured from the dose–response curves.

The mark [2] stands for this setting: PIM1, natural-product inhibitors, mean ± standard deviation of the two experiments.
Setting [3] is: PIM1 kinase, derivatives of 2, mean ± standard deviation of the two experiments.

By IC50 is commonly meant the point on the concentration scale where inhibition reaches its midpoint. A high value points to lower potency.

T1 sequence (P11309 whole entry): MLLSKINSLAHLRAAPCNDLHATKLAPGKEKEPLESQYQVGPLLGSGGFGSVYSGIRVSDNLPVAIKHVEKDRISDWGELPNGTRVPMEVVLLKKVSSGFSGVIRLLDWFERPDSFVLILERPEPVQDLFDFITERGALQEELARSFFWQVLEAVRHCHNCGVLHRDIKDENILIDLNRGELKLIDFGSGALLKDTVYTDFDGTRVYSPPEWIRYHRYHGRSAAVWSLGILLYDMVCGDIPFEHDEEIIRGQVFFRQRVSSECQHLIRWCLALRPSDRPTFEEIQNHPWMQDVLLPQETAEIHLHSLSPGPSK

On to `COc1c(O)c(O)c2oc(-c3ccccc3)cc(=O)c2c1OC` [Compound 1], for which, on PIM1 kinase (setting [2]), half-maximal inhibition (IC50) was put at 0.58 ± 0.2 µM.

With `COc1ccc(/C=C2\Oc3cc(O)ccc3C2=O)cc1` [Compound 2], the half-inhibitory concentration (IC50) at PIM1 kinase (setting [2]) was determined as 1.2 ± 0.1 µM; against PIM1 kinase (setting [3]), 1.19 ± 0.07 µM.

As to `O=C1c2c(O)cc(O)cc2O[C@H](c2ccc(O)c(O)c2)[C@H]1O` [Compound 3], 4 ± 0.6 µM corresponded to half-maximal inhibition against PIM1 kinase (setting [2]) (IC50).

In turn, `O=c1c(-c2ccc(OC3OC(CO)C(O)C(O)C3O)cc2)coc2cc(O)cc(O)c12` (stereo not shown) [Compound 4] showed a concentration for half-maximal inhibition (IC50) on PIM1 kinase (setting [2]) of 20.2 ± 2 µM.

On to `COc1cccc(/C=C2\Oc3cc(O)ccc3C2=O)c1` [Compound 5, (Z)-6-Hydroxy-2-(3-methoxybenzylidene)benzofuran-3(2H)-one], for which the values for the IC50 (at PIM1 kinase (setting [3]); in test [1]) were 0.26 ± 0.05 µM and 15.1 ± 1 µM, respectively.

`COc1cccc(/C=C2\Oc3cc(O)cc(O)c3C2=O)c1` [Compound 6, (Z)-4,6-Dihydroxy-2-(3-methoxybenzylidene)benzofuran-3(2H)-one] registered a half-maximal inhibitory concentration (IC50) on PIM1 kinase (setting [3]) of 0.31 ± 0.02 µM.

Compound `O=C1/C(=C/c2cccc(Cl)c2)Oc2cc(O)cc(O)c21` [Compound 7, (Z)-2-(3-Chlorobenzylidene)-4,6-dihydroxybenzofuran-3(2H)-one] had a 50% inhibitory concentration (IC50) against PIM1 kinase (setting [3]) of 1.45 ± 0.1 µM. This IC50 lies about 4.7-fold higher than the previous one.

As for `COc1cc(/C=C2\Oc3cc(O)ccc3C2=O)ccc1Cl` [Compound 8, (Z)-2-(4-Chloro-3-methoxybenzylidene)-6-hydroxybenzofuran-3(2H)-one], the IC50 on PIM1 kinase (setting [3]) amounted to 0.2 ± 0.03 µM; in test [1] it was 11.2 ± 2 µM.

`COc1cc(/C=C2\Oc3cc(O)cc(O)c3C2=O)ccc1Cl` [Compound 9, (Z)-2-(4-Chloro-3-methoxybenzylidene)-4,6-dihydroxybenzofuran-3(2H)-one]: the IC50 on PIM1 kinase (setting [3]) turned out to be 0.15 ± 0.01 µM.

On PIM1 kinase (setting [3]), `O=C1/C(=C/c2ccc(Cl)c(Cl)c2)Oc2cc(O)cc(O)c21` [Compound 10, (Z)-2-(3,4-Dichlorobenzylidene)-4,6-dihydroxybenzofuran-3(2H)-one] had an IC50 of 0.68 ± 0.08 µM. Against the preceding compound, the IC50 is about 4.5-fold higher.

As for `COc1ccc(/C=C2\Oc3cc(O)ccc3C2=O)cn1` [Compound 11, (Z)-6-Hydroxy-2-((6-methoxypyridin-3-yl)methylene)benzofuran-3(2H)-one], at PIM1 kinase (PIM1, relative to 5 (phenyl ring replaced with pyridine)), the “decrease of inhibitory activity by a factor” value amounted to 20. In addition, the IC50 against PIM1 kinase (setting [3]) worked out at 5.23 ± 0.4 µM.

With `O=C1/C(=C/c2ccc[nH]c2=O)Oc2cc(O)cc(O)c21` [Compound 12, (Z)-3-((4,6-Dihydroxy-3-oxobenzofuran-2(3H)-ylidene)methyl)pyridin-2(1H)-one], the IC50 at PIM1 kinase (setting [3]) stood at 5.86 ± 1 µM.

On to `O=C1/C(=C/c2cc3ccccc3[nH]c2=O)Oc2cc(O)cc(O)c21` [Compound 13, (Z)-3-((4,6-Dihydroxy-3-oxobenzofuran-2(3H)-ylidene)methyl)quinolin-2(1H)-one], for which half-maximal inhibition on PIM1 kinase (setting [3]) (IC50) was put at 1.73 ± 0.3 µM.

With `COc1cc(O)c2c(c1)O/C(=C\c1cc(-c3ccncc3)[nH]n1)C2=O` [Compound 14], the IC50 worked out at 0.018 ± 0.002 µM against PIM1 kinase (setting [3]) and 5.9 ± 1 µM in test [1].

Consider `COc1cc(O)c2c(c1)O/C(=C\c1c[nH]c3ncc(Cl)cc13)C2=O` [Compound 15, (Z)-2-((5-Chloro-1H-pyrrolo[2,3-b]pyridin-3-yl)methylene)-4-hydroxy-6-methoxybenzofuran-3(2H)-one], for which the half-inhibitory concentration (IC50) was determined as 0.0088 ± 0.002 µM against PIM1 kinase (setting [3]) and 3.2 ± 0.6 µM in test [1].

Consider `O=C1/C(=C/c2c[nH]c3nc(Cl)ncc23)Oc2cc(O)cc(O)c21` [Compound 16, (Z)-2-((2-Chloro-7H-pyrrolo[2,3-d]pyrimidin-5-yl)methylene)-4,6-dihydroxybenzofuran-3(2H)-one], for which the figures for the IC50 (at PIM1 kinase (PIM1); at PIM1 kinase (setting [3]); in test [1]) were 0.007 µM, 0.0067 ± 0.003 µM and 4.5 ± 0.8 µM, respectively.

For the compound `COC[C@H]1OC(=O)c2coc3c2[C@@]1(C)C1=C(C3=O)[C@@H]2CCC(=O)[C@@]2(C)C[C@H]1OC(C)=O` [wortmannin, reference compound], it took 3.4 ± 0.2 µM to reach half-maximal inhibition in test [1] (IC50).
